From patent US7453006B2, “Inositol derivatives for increasing chloride secretion and inhibiting inflammation” (Inologic, Inc., priority 2000, dated 2008)
Values joined by “and” are separate entries in the source; they are usually repeats but may differ in a detail not shown here. Equal values may be shown once. “Also recorded” adds a separate entry of the source.

Key:
[1] = test system: arachidonic acid-induced inflammation in mouse ears; test: arachidonic acid-induced inflammation in mouse ears; type: in vivo; conditions: for Ear Thickness: 20 nanomoles/ear topical 30 min before arachidonic acid, measured 60 min after arachidonic acid, control 56.5 ± 1.57
Protocol: Arachidonic Acid (Nu-Chek, Elysian, Minn. 56028); Indomethacin (stock=12.5 mg/mL acetone). Prednisolone (Sigma Chem, P6004) 20 mM dissolved in acetone; Animals: Female Balb/c mice (B&K laboratories) and Swiss-Webster hybrid (B& K Laboratory, Kent, Wash.)
The right ear of each mouse was used for the test compound. Unless otherwise indicated each compound was adjusted to 20 mM by dilution into DMSO or DMSO/5% Pluronic F127 as indicated and 1 or 2 microliters were applied to the test ear. Thirty minutes after each compound was applied, 4 mg arachidonic acid was applied (4 μL/ear; 2 μL/side) to both ears of each mouse. Measurements of edema were taken 60 min after the application of arachidonic acid with microcalipers (Oditest, Scientific Supply and Equipment) unless otherwise indicated. The results are shown in FIG. 15 as millimeters×10^−2 measured at the thickest point of each ear. Control measurements were performed on ears that were only treated with arachidonic acid.
Response to prednisolone (20 μL of 20 mM/ear; 10 μl/side) added 3 hrs prior 20′ to arachidonic acid or indomethacin (5 μg/ear) added 30 min prior to test compounds was determined. The results are shown in Table A, where the anti-inflammatory/inflammatory effects of 20 nanomoles/ear of the indicated compounds were tested as described in Methods. Each plus represents a change from control (arachidonic acid alone) of 2.5 mm×10^−2. Effects were compared with those of Indomethacin (400 nmols/ear).
Acute inflammation: Membrane permeant inositol polyphosphate analogs were administered topically and tested for inhibition of inflammatory symptoms induced by arachidonic acid on the ear of Swiss Webster mice.

[2] = test system: T84 cells; test: Colonic Epithelial Cell Assay (Isc across T84 monolayers, Ussing chambers); type: cell-based, human; conditions: for Isc response to carbachol / Isc response to thapsigargin following carbachol / inhibition of the Isc response to carbachol: 30 min preincubation; for increase in short circuit current (Isc): T84 monolayers in Ussing chambers, differing concentrations (text: colonic and airway epithelial cells)
Protocol: Cl^− secretion in colonic epithelial cells was measured as short circuit current (Isc) across T84 monolayers grown to confluence on Snap-wells (Costar) and mounted in Ussing chambers equipped with voltage clamps (Physiologic Instruments, San Diego). Data was acquired and analyzed using AAcquire and Analyze@ software (Physiologic Instruments). T84 cells (passages 18-48) were maintained as described previously in McRoberts, J. A. et al., “Cyclic AMP and Ca^2+-activated K^+ transport pathway in the apical membrane of a human colonic epithelial cell line,” J. Biol. Chem. 260:14163-14172 (1985). After […] of incubation on Snap-wells, monolayers had formed tight junctions and were preincubated with […] Bt2D-myo-Ins(3,4,5,6)P4/AM for 30-min. prior to mounting. An extracellular concentration of 200 uM corresponds to an intracellular concentration of 4 uM (Vajanaphnich, et al., “Long-term uncoupling of chloride secretion from intracellular calcium levels by Ins(3,4,5,6)P4,” Nature 371:711-714 (1994)). […]

[3] = test system: CF Human Nasal Epithelial (CFHNE) cells; test: Cystic Fibrosis Human Nasal Epithelial Cell Assay (Isc, Ussing chambers); type: cell-based
Protocol: CF Human Nasal Epithelial (CFHNE) Cell Isolation and Proliferation
Nasal Polyps were surgically obtained from a CF patient at Children's Hospital (Seattle, Wash.), transported on ice in a sterile container containing a 1:1 mixture of Dulbecco's modification of minimum essential medium Eagle and Ham's F-12 nutrient medium (DMEM/F-12) (Irvine Scientific, Santa Ana, Calif.) supplemented with 100 U/mL penicillin, 0.1 mg/mL streptomycin, 10 mM HEPES, and 2 mM L-glutamine. The tissue samples were aseptically removed from the transport medium and washed (repeated 5 times) by suspending in 40 mL of Joklik's modification of minimum essential medium Eagle (JMEM) at 4° C., and centrifuging at 500 rpm. The supernatant was aspirated and discarded. The tissue was then transferred to JMEM containing 200 U/mL penicillin, 0.2 mg/mL streptomycin, 0.1 mg/mL gentamycin sulfate (Clonetics, San Diego, Calif.), and 0.1 μg/mL amphotericin-B (Clonetics), and 0.1% Protease, washed an additional two times, suspended in […] in a 10 cm tissue culture dish, and incubated at 4° C. for 24 hours. The tissue samples were then gently triturated, the connective tissue aseptically removed, and the remaining cell suspension centrifuged at 1000 rpm. The supernatant was aspirated and the pellet was resuspended in 10 mL proliferation media, consisting of Keratinocyte-Serum Free Medium (KSFM) (Gibco-BRL, Grand Island, N.Y.) containing 5 ng/ml EGF (Gibco), 50 μg/mL BPE (Gibco), 5 μg/mL insulin, 5 μg/mL transferrin, 5 μg/ml sodium selenite, 10 nM 3,3′,5-triiodo-L-thyronine, 200 nM hydrocortisone, 100 U/mL penicillin, 0.1 mg/mL streptomycin, and 2 mM L-glutamine. The cell suspension was transferred to 2.10 cm tissue culture dishes coated with 3 μg/cm^2 rat-tail collagen (Type I) (Becton-Dickinson, Bedford, Mass.), incubated at 37° C. in an humidified atmosphere of 5% CO2 and 95% air. The cells were allowed to grow for 6 days (˜70% confluence) with the media being replaced with fresh media every other day. The cells were then trypsinized using 0.025% trypsin-EDTA for 5 min. The cell suspension was collected, the trypsin deactivated with 10% Fetal Bovine Serum, and centrifuged at 1000 rpm for 5 min. The cells were then counted using an hemocytometer with a yield of 3×10^6 cells per dish. The supernatant was aspirated and the cells were resuspended in KSFM and plated at a density of 10^4 cells/cm^2.
CFHNE Cell Ussing Chamber Preparation
The CFHNE cells were prepared for Ussing Chamber studies using Snapwell permeable supports (0.4 μm pore size) (Corning Costar, Cambridge, Mass.) coated with 3 μg/cm^2 rat-tail collagen (type 1). Cells were plated at 9×10^3 cells/cm^2 in KSFM. After 2 days, an air-liquid interface (ALI) was initiated in DMEM/F-12 containing: 2% Fetal Clone III (Hyclone, Logan, Utah), 2.5 μg/mL insulin, 2.5 μg/mL transferrin, 2.5 μg/mL sodium selenite, 20 nM hydrocortisone, 1.5 μM epinephrine, 50 μg/mL BPE, 1 nM 3,3′,5-triiodo-L-thyronine, 3.3 nM All-trans retinoic acid, 250 nM ethanolamine, 250 nM O-phosporylethanolamine, 100 U/mL penicillin, 0.1 mg/ml streptomycin, and 2 mM L-glutamine. The CFHNE monolayers reached maximal resistance (˜200 Ω/cm^2) 5-7 days after initiation of ALI. All media/reagents, unless otherwise specified, were supplied by Sigma Chemical Co., St. Louis, Mo.

[4] = topical, ear of Swiss Webster mice

Compound: CCCC(=O)OC1C(OP(=O)(OCOC(C)=O)OCOC(C)=O)C(OP(=O)(OCOC(C)=O)OCOC(C)=O)C(OP(=O)(OCOC(C)=O)OCOC(C)=O)C(OP(=O)(OCOC(C)=O)OCOC(C)=O)C1(CCC)OP(=O)(OCOC(C)=O)OCOC(C)=O (racemic) [Compound D, rac-1-O-butyryl-2-C-propyl-myo-inositol 2,3,4,5,6-pentakisphosphate-dekakis(acetoxymethyl) ester]
- Ear Thickness [1]: 44.0 ± 1.4 mm × 10^−2 and 44.2 ± 6.5 mm × 10^−2
- basal Isc ([2]; 200 μM, acute treatment, T84): small increase in basal Isc; also recorded: small acute effect increasing basal Isc
- subsequent carbachol-stimulated Isc ([2]; 200 μM, acute treatment, T84): little effect

Compound: CCCC(=O)OC1C(OC(=O)CCC)C(OP(=O)(OCOC(=O)CC)OCOC(=O)CC)C(OP(=O)(OCOC(=O)CC)OCOC(=O)CC)C(OP(=O)(OCOC(=O)CC)OCOC(=O)CC)C1OP(=O)(OCOC(=O)CC)OCOC(=O)CC [D-2,3-Di-O-butyryl-myo-inositol 1,4,5,6 tetrakisphosphate octakis(propionoxymethyl)ester]
- topical anti-inflammatory effects, values [1, 4]: 0.25-1.5 μg/animal

Compound: CCCC(=O)OC12CCCOC1C(OP(=O)(OCOC(C)=O)OCOC(C)=O)C(OP(=O)(OCOC(C)=O)OCOC(C)=O)C(OP(=O)(OCOC(C)=O)OCOC(C)=O)C2OP(=O)(OCOC(C)=O)OCOC(C)=O (centres unmarked) [Compound G, (4aa, 5a,6b,7a,8b,8aa)-5,6,7,8-tetrakis[[bis(acetoxymethoxy)-phosphoryl]oxy]-4a-butyryloxy-octahydro-chromen]
- Isc response to carbachol ([2]; 200 μM, T84): did not affect
- Isc response to thapsigargin following carbachol ([2]; 200 μM, T84): reversed the inhibition of thapsigargin induced chloride secretion; also recorded: reverses the carbachol-mediated inhibition of thapsigargin-stimulated increase in Isc

Compound: 2,3,5-tri-O-butyryl-myo-inositol 1,4,6-trisphosphate hexakis-(acetoxymethyl) ester [TMX/AM]
- Ear Thickness [1]: 44.1 ± 2.3 mm × 10^−2

Compound: COCCOCOC12CCCCOC1C(OP(=O)(OCOC(C)=O)OCOC(C)=O)C(OP(=O)(OCOC(C)=O)OCOC(C)=O)C(OP(=O)(OCOC(C)=O)OCOC(C)=O)C2OP(=O)(OCOC(C)=O)OCOC(C)=O (centres unmarked) [Compound C, (5aa,6a,7b,8a,9b,9aa)-6,7,8,9-tetrakis[[bis(acetoxymethoxy)-phosphoryl]oxy]-5a-[(2′-methoxy)ethoxy]methoxy-decahydro-benzo[b]oxepin]
- Ear Thickness [1]: 50.0 ± 5.5 mm × 10^−2
- Isc response to carbachol ([2]; 200 μM, T84): reduces the magnitude
- inhibition of the Isc response to carbachol ([2]; 200 μM, T84): approximately 50%
- Isc response to carbachol ([2]; 400 μM, T84): reduces the magnitude
- Isc response to thapsigargin following carbachol ([2]; 400 μM, T84): partially restores the response of the monolayers to thapsigargin
- inhibition of the Isc response to carbachol ([2]; 400 μM, T84): approximately 50%

Compound: N=C(N)NC(=O)c1nc(Cl)c(N)nc1N [Amiloride, amiloride, reference compound]
- decrease in Isc ([3]; amiloride 100 μM, apical compartment, in 19 of 23 monolayers): 1.01 μAmps/cm^2

Compound: 2,3,5-tri-O-butyryl-myo-inositol 1,4,6-trisphosphate hexakis(proprionoxymethyl)ester [TMX]
- prolonged decrease in Isc after ATP (negative component of the ATP effect) ([3]; CFHNE monolayers exposed to TMX for 10 min, ATP 10^−4 M): attenuated; also recorded: reverse the negative component of the ATP effect on Isc
- increase in short circuit current (Isc) [2]: prolonged increase in Isc similar to cyclic AMP

Compound: CCCC(=O)O[C@@H]1[C@H](OC(=O)CCC)[C@H](OP(=O)(OCOC(=O)CC)OCOC(=O)CC)[C@@H](OP(=O)(OCOC(=O)CC)OCOC(=O)CC)[C@H](OC(=O)CCC)[C@H]1OP(=O)(OCOC(=O)CC)OCOC(=O)CC [ent-TMX, 1,2,5-tri-O-butyryl-myo-inositol 3,4,6-trisphosphate hexakis-(proprionoxymethyl) ester]
- increase in short circuit current (Isc) [2]: inactive

Compound: CC(=O)OCOP(=O)(OCOC(C)=O)O[C@@H]1[C@@H](OP(=O)(OCOC(C)=O)OCOC(C)=O)[C@@H]2O[C@H]3CCC[C@@]2(O3)[C@H](OP(=O)(OCOC(C)=O)OCOC(C)=O)[C@H]1OP(=O)(OCOC(C)=O)OCOC(C)=O [Tri-cyclo, (1S, 2R, 3S, 4R, 5S, 6S, 8R)-2,3,4,5-tetrakis[[bis-(acetoxymethoxy)phosphoryl]oxy]-7,12-dioxa-tricyclo-[6.3.1.0(1,6)]-dodecane]
- Ear Thickness [1]: 49.8 ± 2.5 mm × 10^−2

Compound: Nc1ncnc2c1ncn2[C@@H]1O[C@H](COP(=O)(O)OP(=O)(O)OP(=O)(O)O)[C@@H](O)[C@H]1O [ATP, adenosine triphosphate, reference compound]
- Isc after ATP ([3]; ATP 10^−4 M, monolayers pretreated with vehicle): transient increase in Isc followed by a prolonged decrease

Compound: CCCC(=O)OC1C(OC(=O)CCC)C(OP(=O)(OCOC(C)=O)OCOC(C)=O)C(OP(=O)(OCOC(C)=O)OCOC(C)=O)C(OP(=O)(OCOC(C)=O)OCOC(C)=O)C1OP(=O)(OCOC(C)=O)OCOC(C)=O [D-2,3-Di-O-butyryl-myo-inositol 1,4,5,6 tetrakisphosphate octakis(acetoxymethyl)ester, reference compound]
- dose with inhibitory effect comparable in intensity to that of indomethacin (250 μg/animal) [1, 4]: 20-30 μg/animal
